# From ChEMBL document CHEMBL5131375, “Recent Developments in the Use of Kinase Inhibitors for Management of Viral Infections” (J Med Chem, 2022)
# Tests used:
# Hepatitis C virus [1] = experiment: microbe, parasite or virus in culture; conditions: subtype 1b
# Coxsackievirus B3 = experiment: microbe, parasite or virus in culture; conditions: Enterovirus B
# Human rhinovirus sp. = experiment: microbe, parasite or virus in culture
# in vitro [2] = conditions: human, hela
# Influenza A virus [3] = experiment: microbe, parasite or virus in culture; type: functional, organism-based; conditions: H1N1pdm09
# [4] = Cytotoxicity against human A549 cells; type: toxicity, cell-based
# [5] = molecular target: Tyrosine-protein kinase JAK2 (Homo sapiens, UniProt O60674)
# Chain of Tyrosine-protein kinase JAK2 (O60674 whole entry): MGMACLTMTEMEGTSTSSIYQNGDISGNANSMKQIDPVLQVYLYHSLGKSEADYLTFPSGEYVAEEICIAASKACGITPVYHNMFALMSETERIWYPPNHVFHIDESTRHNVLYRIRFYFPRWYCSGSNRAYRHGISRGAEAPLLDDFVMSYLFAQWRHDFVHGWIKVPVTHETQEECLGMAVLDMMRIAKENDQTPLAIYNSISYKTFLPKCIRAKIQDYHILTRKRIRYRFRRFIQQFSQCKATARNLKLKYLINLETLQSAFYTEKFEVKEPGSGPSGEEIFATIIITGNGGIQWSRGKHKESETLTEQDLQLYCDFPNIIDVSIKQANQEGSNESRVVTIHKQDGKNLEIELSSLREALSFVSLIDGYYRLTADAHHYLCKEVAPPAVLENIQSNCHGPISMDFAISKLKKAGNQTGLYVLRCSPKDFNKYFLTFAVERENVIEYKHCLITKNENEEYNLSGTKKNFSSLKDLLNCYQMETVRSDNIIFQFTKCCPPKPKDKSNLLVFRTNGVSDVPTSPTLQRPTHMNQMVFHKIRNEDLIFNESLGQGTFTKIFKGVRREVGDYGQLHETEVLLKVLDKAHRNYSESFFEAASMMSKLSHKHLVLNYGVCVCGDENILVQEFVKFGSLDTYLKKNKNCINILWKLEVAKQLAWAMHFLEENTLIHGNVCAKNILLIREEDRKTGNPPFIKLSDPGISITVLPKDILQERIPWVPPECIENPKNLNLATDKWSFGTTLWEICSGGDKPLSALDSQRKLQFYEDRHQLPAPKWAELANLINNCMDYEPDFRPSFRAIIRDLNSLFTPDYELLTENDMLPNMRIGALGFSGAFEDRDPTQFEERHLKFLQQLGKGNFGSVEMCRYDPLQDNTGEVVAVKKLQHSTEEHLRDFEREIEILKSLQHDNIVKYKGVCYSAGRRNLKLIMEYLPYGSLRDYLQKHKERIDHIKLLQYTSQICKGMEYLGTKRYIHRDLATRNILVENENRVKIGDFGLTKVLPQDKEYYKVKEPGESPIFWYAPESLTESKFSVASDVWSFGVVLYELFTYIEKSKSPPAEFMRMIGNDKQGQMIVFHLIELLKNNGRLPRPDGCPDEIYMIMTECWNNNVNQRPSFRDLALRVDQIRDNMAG
# dengue virus type 3 = experiment: microbe, parasite or virus in culture; type: functional, organism-based
# in vitro [6] = conditions: human
# dengue virus type 2 = experiment: microbe, parasite or virus in culture; type: functional, organism-based
# dengue virus type 4 = experiment: microbe, parasite or virus in culture; type: functional, organism-based
# dengue virus type 1 = experiment: microbe, parasite or virus in culture; type: functional, organism-based
# in vitro [7] = conditions: chlorocebus sabaeus, vero c1008
# SARS-CoV-2 [8] = experiment: microbe, parasite or virus in culture; type: functional, organism-based; conditions: Severe acute respiratory syndrome coronavirus 2
# SARS-CoV-2 [9] = experiment: microbe, parasite or virus in culture; type: functional, organism-based; conditions: Severe acute respiratory syndrome coronavirus 2, Huh-7
# Influenza A virus [10] = experiment: Antiviral activity against influenza A/Regensburg/D6/2009 virus; type: functional, organism-based
# Lyssavirus rabies = experiment: microbe, parasite or virus in culture; type: functional, organism-based
# [11] = Cytotoxicity against golden hamster BSR cells; type: toxicity, cell-based, Mesocricetus auratus
# Dengue virus = experiment: microbe, parasite or virus in culture
# Hepatitis C virus [12] = experiment: microbe, parasite or virus in culture
# Hepatitis C virus [13] = experiment: Antiviral activity against HCV GT1b-genotype assessed as inhibition of viral replication; type: functional, organism-based, Hepacivirus hominis
# in vitro [14] = conditions: human, Huh-7 cells
# [15] = Cytotoxicity against HFL1 cells; type: toxicity, cell-based; conditions: human
# Human alphaherpesvirus 1 [16] = experiment: microbe, parasite or virus in culture; type: functional, organism-based
# Human alphaherpesvirus 1 [17] = experiment: Antiviral activity against HSV-1 in HFL1 cells incubated for 24 hrs; type: functional, organism-based; conditions: Human alphaherpesvirus 1, HFL1, 24 h
# [18] = molecular target: T1, AP2-associated protein kinase 1 (Homo sapiens, UniProt Q2M2I8)
# T1 sequence (Q2M2I8 whole entry): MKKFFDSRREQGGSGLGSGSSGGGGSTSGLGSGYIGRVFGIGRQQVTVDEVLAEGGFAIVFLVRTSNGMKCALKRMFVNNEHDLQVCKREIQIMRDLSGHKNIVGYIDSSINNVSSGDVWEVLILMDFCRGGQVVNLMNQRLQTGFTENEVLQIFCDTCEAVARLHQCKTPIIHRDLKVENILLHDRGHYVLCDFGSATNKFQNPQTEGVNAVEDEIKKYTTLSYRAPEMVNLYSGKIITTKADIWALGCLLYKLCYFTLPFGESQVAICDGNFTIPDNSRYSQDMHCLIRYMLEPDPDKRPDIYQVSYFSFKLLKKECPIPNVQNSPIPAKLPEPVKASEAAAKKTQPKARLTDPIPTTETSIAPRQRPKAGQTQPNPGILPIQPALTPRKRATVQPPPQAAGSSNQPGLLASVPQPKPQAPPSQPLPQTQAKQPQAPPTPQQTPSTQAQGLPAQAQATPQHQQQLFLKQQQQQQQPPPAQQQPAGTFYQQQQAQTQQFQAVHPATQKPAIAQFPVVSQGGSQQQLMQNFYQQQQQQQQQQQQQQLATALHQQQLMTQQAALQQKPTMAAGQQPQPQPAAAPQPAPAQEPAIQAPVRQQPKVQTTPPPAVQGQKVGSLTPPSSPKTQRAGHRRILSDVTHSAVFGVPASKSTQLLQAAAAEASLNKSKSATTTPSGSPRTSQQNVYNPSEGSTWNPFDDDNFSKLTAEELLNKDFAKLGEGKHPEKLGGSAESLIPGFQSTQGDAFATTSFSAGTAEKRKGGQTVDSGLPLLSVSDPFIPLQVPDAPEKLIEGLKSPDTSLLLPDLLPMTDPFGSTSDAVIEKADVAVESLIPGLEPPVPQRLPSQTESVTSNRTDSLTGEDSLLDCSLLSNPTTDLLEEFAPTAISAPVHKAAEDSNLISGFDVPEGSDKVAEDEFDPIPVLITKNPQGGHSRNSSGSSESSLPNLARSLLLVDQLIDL
# in vitro [19] = conditions: dog, MDCK cells
# Influenza A virus [20] = experiment: microbe, parasite or virus in culture; type: functional, organism-based
# [21] = Volume of distribution at steady state in Han-Wistar rat plasma at 5 mg/kg, iv at […] LC-MS/MS analysis; type: ADME, organism-based; conditions: time 0.083 hrs, read-out: Vdss
# [22] = Volume of distribution at steady state in Beagle dog plasma at 1 mg/kg, iv at […] LC-MS/MS analysis; type: ADME, organism-based, Canis lupus familiaris; conditions: time 0.083 hrs, read-out: Vdss
# [23] = Volume of distribution at steady state in cynomolgus monkey plasma at 3 mg/kg, iv at […] LC-MS/MS analysis; type: ADME, organism-based, Macaca fascicularis; conditions: time 0.083 hrs, read-out: Vdss
# Vero C1008 = experiment: Cytotoxicity against African green monkey Vero E6 cells at 250 nM; type: toxicity, cell-based; conditions: chlorocebus sabaeus, vero c1008, 0.25 µM
# [24] = Volume of distribution at steady state in CD-1 mouse plasma at 10 mg/kg, iv at […] LC-MS/MS analysis; type: ADME, organism-based; conditions: time 0.083 hrs, read-out: Vdss
# SARS-CoV-2 [25] = experiment: Antiviral activity against SARS-CoV-2 assessed as reduction of viral load at 400 to 800 nM; type: functional, Severe acute respiratory syndrome coronavirus 2; parameters: scale not given: the % may be the effect or the level left; conditions: dose 400-800 nM
# [26] = Cytotoxicity against liver spheroids (unknown origin); type: toxicity, tissue-based
# [27] = molecular target: T1, AP2-associated protein kinase 1; remark: listed apart in the source
# SARS-CoV-2 [28] = experiment: Antiviral activity against SARS-CoV-2 assessed as reduction of viral load at 400 nM relative to control; type: functional, Severe acute respiratory syndrome coronavirus 2; parameters: scale not given: the % may be the effect or the level left
# [29] = Cytotoxicity against osteoblast cells (unknown origin); type: toxicity, cell-based, Calvarial osteoblast
# in vitro [30] = conditions: chlorocebus sabaeus, Vero cells
# Junin virus = experiment: microbe, parasite or virus in culture; type: functional, organism-based; conditions: Mammarenavirus juninense
structure (smiles),measurement,setting,value
CCNS(=O)(=O)c1cc(-c2c(C)nc3c(NCc4ccnc(CC)c4)cc(Cl)nn23)ccc1OO,EC50,Hepatitis C virus [1],0.029 µM
same,EC50,Coxsackievirus B3,0.058 µM
same,EC50,Human rhinovirus sp.,0.075 µM
same,CC50,in vitro [2],18.3 µM
COc1cc(F)c(F)c(Nc2ccc(I)cc2F)c1NS(=O)(=O)C1(C[C@H](O)CO)CC1 [REFAMETINIB],IC50,Influenza A virus [3],0.06 µM
same,CC50,[4],> 100 µM
Cc1cc(Nc2cc(CN3CCOCC3)c3nc(C)c(Cc4ccc(Cl)cc4F)n3n2)n[nH]1 [GANDOTINIB],IC50,[5],0.003 µM
COc1ccc(CC(N)c2csc(Nc3ncccn3)n2)cc1 (centres undefined),EC50,dengue virus type 3,2.6 µM
same,CC50,in vitro [6]; Huh-7.5.1 cells,> 100 µM
same,EC50,dengue virus type 2,7.6 µM
same,EC50,dengue virus type 4,5 µM
same,EC50,dengue virus type 1,0.9 µM
CCc1nc(C(N)=O)c(Nc2ccc(N3CCC(N4CCN(C)CC4)CC3)c(OC)c2)nc1NC1CCOCC1 [GILTERITINIB],CC50,in vitro [7],> 0.5 µM
same,EC50,SARS-CoV-2 [8],0.225 µM
same,IC50,SARS-CoV-2 [9],0.225 µM
Cn1cnc2c(F)c(Nc3ccc(Br)cc3Cl)c(C(=O)NOCCO)cc21 [SELUMETINIB],EC50,Influenza A virus [3],0.75 µM
same,CC50,[4],> 100 µM
same,EC50,Influenza A virus [10],0.75 µM
CC(=O)c1c(O)c(C)c(O)c(Cc2c(O)c3c(c(C(=O)/C=C/c4ccccc4)c2O)OC(C)(C)C=C3)c1O [ROTTLERIN],EC50,Lyssavirus rabies,1 µM
same,CC50,[11],100 µM
CC(=O)NCCNc1cc(Cl)nn2c(-c3cccc(S(=O)(=O)N(C)C)c3)c(C)nc12,EC50,Hepatitis C virus [1],0.08 µM
same,EC50,Coxsackievirus B3,0.14 µM
same,EC50,Human rhinovirus sp.,1.03 µM
same,CC50,in vitro [2],> 50 µM
COc1ccc(-c2ccc3nsc(N4C[C@@H](C)O[C@@H](C)C4)c3n2)cc1OC,CC50,in vitro [6]; huh7.5.1,> 10 µM
same,EC50,Dengue virus,1 µM
COc1cc(-c2cnc3c(N4CCOCC4)snc3c2)cc(OC)c1OC,CC50,in vitro [6]; Huh-7.5.1 cells,23.2 µM
same,EC50,Hepatitis C virus [12],2.5 µM
CC(C)S(=O)(=O)n1c(N)nc2ccc(/C(=N/O)c3ccccc3)cc21 [ENVIROXIME],EC50,Hepatitis C virus [13],0.1 µM
same,CC50,in vitro [14],25 µM
same,EC50,Hepatitis C virus [12],0.2 µM
Cc1c(NC(=O)c2cccc(NC(=O)C(C)NC(=O)c3ccco3)c2)c(=O)n(-c2ccccc2)n1C (centres undefined),CC50,[15],2040 µM
same,EC50,Human alphaherpesvirus 1 [16],64 µM
same,IC50,Human alphaherpesvirus 1 [17],29 µM
CCc1cnn2c(NCc3ccc[n+]([O-])c3)cc(N3CCCC[C@H]3CCO)nc12 [DINACICLIB],CC50,[4],> 100 µM
CC[C@@H]1CN(C(=O)NCC(F)(F)F)C[C@@H]1c1cnc2cnc3[nH]ccc3n12 [UPADACITINIB],Kd,[18],9.9 µM
CCS(=O)(=O)Nc1ccc2c(c1)/C(=C(/Nc1ccc(CN3CCCCC3)cc1)c1ccccc1)C(=O)N2 [HESPERADIN],CC50,in vitro [19],21.3 µM
same,EC50,Influenza A virus [20],0.28 µM
Cc1cn(-c2cc(NC(=O)c3ccc(C)c(Nc4nccc(-c5cccnc5)n4)c3)cc(C(F)(F)F)c2)cn1 [NILOTINIB],Vd at […],[21],0.55 L/kg
same,Vd at […],[22],0.55 L/kg
same,EC50,SARS-CoV-2 [8],0.08 µM
same,Vd at […],[23],0.55 L/kg
same,Activity,Vero C1008,Non-Toxic
same,Vd at […],[24],0.55 L/kg
COc1ccc(-c2cnc3[nH]cc(C#Cc4cccnc4)c3c2)cc1OC,CC50,in vitro [6]; Huh-7.5.1 cells,17 µM
same,EC50,Dengue virus,0.043 µM
CCS(=O)(=O)N1CC(CC#N)(n2cc(-c3ncnc4[nH]ccc34)cn2)C1 [BARICITINIB],Activity,SARS-CoV-2 [25],30%
same,CC50,[26],> 5 µM
same,IC50,[27],0.017 µM
same,Activity,SARS-CoV-2 [28],30%
same,CC50,[29],> 50 µM
C/C(O)=C(/C#N)C(=O)Nc1ccc(C(F)(F)F)cc1,CC50,[4],> 100 µM
same,CC50,in vitro [30],223 µM
same,EC50,Junin virus,16 µM
